Biological target: T1, calcium channel (Oryctolagus cuniculus, UniProt P15381)
T1 construct: from tissue; host or cells: rabbit heart membrane preparation
Assay: Assay for Inhibition of Nitrendipine Binding (3H-nitrendipine, heart membranes)
Set-up: species or system rabbit
Details: not given
Protocol: Assay for Inhibition of Nitrendipine Binding
Female, New Zealand white rabbits (1-2 kg) are sacrificed by cervical dislocation, and the heart is immediately removed, cleaned and chopped into small pieces. The tissue is homogenized in 5×times volume of 0.05M Hepes buffer, pH 7.4. The homogenate is centrifuged at 4000 g for 10 minutes, and the supernatant is re-centrifuged at 42,000×g for 90 minutes. The resulting membrane pellet is resuspended (0.7 ml/g weight) in 0.05M Hepes, pH 7.4 and stored at […] until used. Each tube of the binding assay contains ^3H-nitrendipine (0.05-0.50 nM), buffer, membranes (0.10 ml), and test compound in a total volume of 1.0 ml. After 90 minutes at 4° C., the bound nitrendipine is separated from the unbound by filtration on Whatman GF/C filters. After rinsing, the filters are dried and counted in a liquid scintillation counter.
Non-specific binding of ^3H-nitrendipine (that amount bound in the presence of excess unlabelled nitrendipine) is subtracted from the total bound to obtain specifically bound radiolabeled nitrendipine. The amount of specifically bound nitrendipine in the presence of a test compound is compared to that amount bound in the absence of a compound. A percent displacement (or inhibition) can then be calculated.

T1 sequence (P15381 whole entry, other chains not shown): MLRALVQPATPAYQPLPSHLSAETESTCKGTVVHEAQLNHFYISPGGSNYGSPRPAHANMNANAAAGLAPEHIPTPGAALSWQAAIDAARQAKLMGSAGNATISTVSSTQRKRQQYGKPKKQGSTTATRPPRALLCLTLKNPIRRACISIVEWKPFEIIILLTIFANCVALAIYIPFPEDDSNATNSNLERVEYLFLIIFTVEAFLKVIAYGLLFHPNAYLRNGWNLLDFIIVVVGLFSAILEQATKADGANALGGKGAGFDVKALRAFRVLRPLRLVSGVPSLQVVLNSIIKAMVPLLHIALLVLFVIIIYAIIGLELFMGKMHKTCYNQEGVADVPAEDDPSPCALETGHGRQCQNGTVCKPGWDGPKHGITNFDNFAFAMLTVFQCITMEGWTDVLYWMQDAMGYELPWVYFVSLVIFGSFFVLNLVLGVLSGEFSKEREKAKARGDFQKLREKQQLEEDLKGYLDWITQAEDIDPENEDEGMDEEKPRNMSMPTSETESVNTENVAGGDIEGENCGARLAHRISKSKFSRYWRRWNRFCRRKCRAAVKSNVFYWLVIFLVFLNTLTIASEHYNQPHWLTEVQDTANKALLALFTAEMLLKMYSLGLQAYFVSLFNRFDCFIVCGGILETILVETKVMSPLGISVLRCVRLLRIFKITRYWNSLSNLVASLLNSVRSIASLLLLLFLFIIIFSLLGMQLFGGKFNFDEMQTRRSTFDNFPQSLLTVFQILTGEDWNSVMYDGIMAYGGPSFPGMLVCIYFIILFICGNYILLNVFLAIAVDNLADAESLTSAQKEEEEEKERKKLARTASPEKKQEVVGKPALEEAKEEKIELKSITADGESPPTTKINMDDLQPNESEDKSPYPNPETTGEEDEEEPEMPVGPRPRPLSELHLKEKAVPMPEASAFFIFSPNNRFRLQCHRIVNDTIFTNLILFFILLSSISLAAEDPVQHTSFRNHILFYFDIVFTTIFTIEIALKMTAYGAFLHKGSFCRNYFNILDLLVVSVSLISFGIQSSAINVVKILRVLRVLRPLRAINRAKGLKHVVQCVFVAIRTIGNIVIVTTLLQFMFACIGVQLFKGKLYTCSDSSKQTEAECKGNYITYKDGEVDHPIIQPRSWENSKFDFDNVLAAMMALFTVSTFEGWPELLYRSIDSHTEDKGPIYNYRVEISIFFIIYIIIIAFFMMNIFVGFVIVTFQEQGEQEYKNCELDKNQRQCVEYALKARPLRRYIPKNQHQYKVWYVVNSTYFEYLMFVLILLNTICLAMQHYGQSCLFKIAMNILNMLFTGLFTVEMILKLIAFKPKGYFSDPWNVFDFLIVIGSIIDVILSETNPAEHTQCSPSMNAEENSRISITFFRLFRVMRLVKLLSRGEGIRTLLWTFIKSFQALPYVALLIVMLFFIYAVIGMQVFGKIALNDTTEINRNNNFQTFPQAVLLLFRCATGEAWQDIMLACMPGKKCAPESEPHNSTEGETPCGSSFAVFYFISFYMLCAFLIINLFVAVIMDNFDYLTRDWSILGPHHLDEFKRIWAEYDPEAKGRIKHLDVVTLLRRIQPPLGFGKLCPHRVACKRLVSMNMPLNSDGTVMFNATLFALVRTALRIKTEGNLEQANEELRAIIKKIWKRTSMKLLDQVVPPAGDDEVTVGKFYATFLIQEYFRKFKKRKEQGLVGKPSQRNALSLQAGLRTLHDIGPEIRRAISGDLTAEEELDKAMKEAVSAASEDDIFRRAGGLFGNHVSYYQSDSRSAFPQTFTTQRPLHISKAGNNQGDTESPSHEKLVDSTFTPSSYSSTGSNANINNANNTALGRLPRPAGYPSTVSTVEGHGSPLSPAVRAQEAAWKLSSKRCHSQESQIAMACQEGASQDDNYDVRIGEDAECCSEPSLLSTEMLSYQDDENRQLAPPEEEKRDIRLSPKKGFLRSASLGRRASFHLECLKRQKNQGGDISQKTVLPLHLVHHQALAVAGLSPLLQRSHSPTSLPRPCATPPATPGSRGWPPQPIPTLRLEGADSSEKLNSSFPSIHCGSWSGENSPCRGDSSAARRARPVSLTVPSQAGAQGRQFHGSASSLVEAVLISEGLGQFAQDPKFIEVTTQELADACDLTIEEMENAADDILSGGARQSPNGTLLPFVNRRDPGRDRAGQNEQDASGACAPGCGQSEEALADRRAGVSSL
T1 sequence (P13806 27-960 partner limits assumed, other chains not shown): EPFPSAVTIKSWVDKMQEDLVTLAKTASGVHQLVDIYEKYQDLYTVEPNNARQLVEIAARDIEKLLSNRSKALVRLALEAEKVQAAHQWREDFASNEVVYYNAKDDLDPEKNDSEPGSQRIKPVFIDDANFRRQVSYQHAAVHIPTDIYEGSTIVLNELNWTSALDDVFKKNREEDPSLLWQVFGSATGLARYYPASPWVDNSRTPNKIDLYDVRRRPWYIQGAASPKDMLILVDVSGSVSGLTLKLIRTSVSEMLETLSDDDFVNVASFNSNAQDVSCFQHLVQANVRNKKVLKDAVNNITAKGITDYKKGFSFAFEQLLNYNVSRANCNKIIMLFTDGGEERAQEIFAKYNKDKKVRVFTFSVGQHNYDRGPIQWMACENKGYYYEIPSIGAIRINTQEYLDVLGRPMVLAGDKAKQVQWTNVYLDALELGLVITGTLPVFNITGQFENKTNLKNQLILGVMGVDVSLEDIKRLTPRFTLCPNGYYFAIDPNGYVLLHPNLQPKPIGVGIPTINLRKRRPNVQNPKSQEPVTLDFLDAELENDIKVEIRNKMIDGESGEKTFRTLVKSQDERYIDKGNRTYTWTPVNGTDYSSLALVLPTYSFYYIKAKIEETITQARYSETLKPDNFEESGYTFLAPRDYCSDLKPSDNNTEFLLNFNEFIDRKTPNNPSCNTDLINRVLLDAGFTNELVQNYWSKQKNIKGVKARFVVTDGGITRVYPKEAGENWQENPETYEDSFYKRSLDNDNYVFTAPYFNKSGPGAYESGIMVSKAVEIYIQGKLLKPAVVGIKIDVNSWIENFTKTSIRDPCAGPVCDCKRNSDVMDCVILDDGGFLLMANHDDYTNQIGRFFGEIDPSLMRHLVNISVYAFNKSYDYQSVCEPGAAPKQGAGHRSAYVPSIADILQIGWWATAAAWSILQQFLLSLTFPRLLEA
T1 sequence (P13806 961-1106 partner limits assumed, other chains not shown): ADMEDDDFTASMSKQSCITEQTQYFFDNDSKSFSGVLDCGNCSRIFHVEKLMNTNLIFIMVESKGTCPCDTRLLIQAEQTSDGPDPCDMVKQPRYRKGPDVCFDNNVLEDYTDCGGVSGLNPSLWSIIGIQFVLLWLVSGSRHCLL

Structure (SMILES)	IC50
CC1=C(C(=O)OCCOC(=O)Cc2ccccc2)C(c2c(F)cccc2Cl)C2=C(CS(=O)(=O)c3ccccc3S2(=O)=O)N1 (stereo not drawn) [Compound 30]	110 nM

Same assay, conditions: Table 1, compounds of Formula I; 3H-nitrendipine displacement, rabbit heart membranes; read-out: Nitrendipine Binding Assay IC50

Structure (SMILES)	IC50
CC1=C(C(=O)OCCN(C)Cc2ccccc2)C(c2ccccc2[N+](=O)[O-])C2=C(CS(=O)(=O)c3ccccc3S2(=O)=O)N1 (stereo not drawn) [Compound 3, 1H-[1,5]Benzodithiepino[3,2-b]pyridine-3-carboxylic acid, 4,11-dihydro-2-methyl-4-(2-nitrophenyl), 2-[methyl(phenylmethyl)amino]ethyl ester, 5,5,10,10-tetraoxide]	34 nM
CC1=C(C(=O)OCCN(C)Cc2ccccc2)C(c2cccc([N+](=O)[O-])c2)C2=C(CS(=O)(=O)c3ccccc3S2(=O)=O)N1 (stereo not drawn) [Compound 16, 1H-[1,5]Benzodithiepino[3,2-b]pyridine-3-carboxylic acid, 4,11-dihydro-2-methyl-4-(3-nitrophenyl), 2-[methyl(phenylmethyl)amino]ethyl ester, 5,5,10,10-tetraoxide]	24 nM
COC(=O)C1=C(C)NC2=C(C1c1cccc(Cl)c1Cl)S(=O)(=O)c1ccccc1[S+]([O-])C2 (stereo not drawn) [Compound 7, 1H-[1,5]Benzodithiepino[3,2-b]pyridine-3-carboxylic acid, 4-(2,3-dichlorophenyl)-4,11-dihydro-2-methyl, methyl ester, 5,5,10-trioxide]	8 nM
COC(=O)C1=C(C)NC2=C(C1c1cccc([N+](=O)[O-])c1)S(=O)(=O)c1ccccc1S(=O)(=O)C2 (stereo not drawn) [Compound 15, 1H-[1,5]Benzodithiepino[3,2-b]pyridine-3-carboxylic acid, 4,11-dihydro-2-methyl-4-(3-nitrophenyl), methyl ester, 5,5,10,10-tetraoxide]	20 nM
COC(=O)C1=C(C)NC2=C(C1c1cccc(Cl)c1)S(=O)(=O)c1ccccc1S(=O)(=O)C2 (stereo not drawn) [Compound 9, 1H-[1,5]Benzodithiepino[3,2-b]pyridine-3-carboxylic acid, 4-(3-chlorophenyl)-4,11-dihydro-2-methyl, methyl ester, 5,5,10,10-tetraoxide]	10 nM
COC(=O)C1=C(C)NC2=C(C1c1ccccc1[N+](=O)[O-])S(=O)(=O)c1ccccc1S(=O)(=O)C2 (stereo not drawn) [Compound 10]	36 nM

Same assay, conditions: Table 2, compounds of Formula II; 3H-nitrendipine displacement, rabbit heart membranes; read-out: Nitrendipine Binding IC50

Structure (SMILES)	IC50
CC(=O)OCCOC(=O)C1=C(C)NC2=C(C1c1c(F)cccc1Cl)S(=O)(=O)c1ccccc1S(=O)(=O)C2 (stereo not drawn) [Compound 22, 1H-[1,5]benzodithiepino[3,2-b]pyridine-3-carboxylic acid, 4-(2-chloro-6-fluorophenyl)-4,11-dihydro-2-methyl-, 2-(acetyloxy)ethyl ester, 5,5,10,10-tetraoxide]	180 nM
CC1=C(C(=O)OCCCOC(=O)c2ccccc2)C(c2c(F)cccc2Cl)C2=C(CS(=O)(=O)c3ccccc3S2(=O)=O)N1 (stereo not drawn) [Compound 34]	188 nM
CC1=C(C(=O)OCCOC(=O)C(C)C)C(c2c(F)cccc2Cl)C2=C(CS(=O)(=O)c3ccccc3S2(=O)=O)N1 (stereo not drawn) [Compound 27]	26 nM
CC1=C(C(=O)OCCNC(=O)c2ccccc2)C(c2c(F)cccc2Cl)C2=C(CS(=O)(=O)c3ccccc3S2(=O)=O)N1 (stereo not drawn) [Compound 29, 1H-[1,5]benzodithiepino[3,2-b]pyridine-3-carboxylic acid, 4-(2-chloro-6-fluorophenyl)-4,11-dihydro-2-methyl-, 2-(benzoylamino)ethyl ester, 5,5,10,10-tetraoxide]	859 nM
CC1=C(C(=O)OCc2oc(=O)oc2-c2ccccc2)C(c2c(F)cccc2Cl)C2=C(CS(=O)(=O)c3ccccc3S2(=O)=O)N1 (stereo not drawn) [Compound 40]	11 nM

— patent publication US6472530B1, “Benzo-fused dithiepino[6,5-b]pyridines, and related compositions and methods” (Ortho-McNeil Pharmaceutical, Inc., priority 1999, dated 2002)
